# Reference: publication PMC5028780, “Receptor and transporter binding and activity profiles of albiflorin extracted from Radix paeoniae Alba” (Scientific Reports, 2016)
# Key:
# M4 = M4 (Homo sapiens, UniProt P08173); experiment: CNS receptor binding, muscarinic M4; details: CHO cell line, [3H]-NMS(1)
# Procedure: (§1) Albiflorin (10 μM) was tested for numerous other potential binding targets by using standard receptor binding procedures. The tested targets included the following receptors: D1, D2, D3, D4, D5, 5-HT1A, 5-HT1B, 5-HT1D, 5-HT2a, 5-HT2C, 5-HT3, 5-HT5A, 5-HT6, 5-HT7, α1A, α1B, α2A, β1, M1, M2, M3, M4, M5, μ, κ, δ, A1, A2A, H1, H2, H3, H4.
# 5-HT7 = 5-HT7 (Homo sapiens, UniProt P34969); experiment: CNS receptor binding, 5-HT7; details: HEK293 cell line, [3H]-LSD(4)
# Chain of 5-HT7 (P34969 whole entry): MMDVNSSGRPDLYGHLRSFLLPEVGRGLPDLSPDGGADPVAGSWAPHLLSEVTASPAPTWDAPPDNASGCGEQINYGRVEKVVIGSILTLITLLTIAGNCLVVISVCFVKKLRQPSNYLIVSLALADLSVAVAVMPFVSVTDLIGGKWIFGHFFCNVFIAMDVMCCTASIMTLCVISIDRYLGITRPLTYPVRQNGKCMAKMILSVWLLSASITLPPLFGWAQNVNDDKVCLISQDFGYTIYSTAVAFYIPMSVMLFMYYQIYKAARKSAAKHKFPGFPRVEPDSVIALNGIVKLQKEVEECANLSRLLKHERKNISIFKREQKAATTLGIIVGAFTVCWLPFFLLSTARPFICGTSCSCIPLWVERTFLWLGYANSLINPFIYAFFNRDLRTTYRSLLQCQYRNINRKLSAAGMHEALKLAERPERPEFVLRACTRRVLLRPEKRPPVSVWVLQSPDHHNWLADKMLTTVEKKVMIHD
# Procedure: as §1
# duration of immobility = system: duration of immobility; design: method as in PMID 26719283; details: mice; short- and long-term administration; cited from earlier work
# rat DAT = biological target: T1, rat DAT (Rattus norvegicus, UniProt P23977); details: [3H]-win35,428, Striatum, read-out: Ki values, DAT binding
# T1 construct: from tissue; host or cells: Sprague-Dawley rat brain membranes (probably striatum)
# T1 sequence (P23977 whole entry): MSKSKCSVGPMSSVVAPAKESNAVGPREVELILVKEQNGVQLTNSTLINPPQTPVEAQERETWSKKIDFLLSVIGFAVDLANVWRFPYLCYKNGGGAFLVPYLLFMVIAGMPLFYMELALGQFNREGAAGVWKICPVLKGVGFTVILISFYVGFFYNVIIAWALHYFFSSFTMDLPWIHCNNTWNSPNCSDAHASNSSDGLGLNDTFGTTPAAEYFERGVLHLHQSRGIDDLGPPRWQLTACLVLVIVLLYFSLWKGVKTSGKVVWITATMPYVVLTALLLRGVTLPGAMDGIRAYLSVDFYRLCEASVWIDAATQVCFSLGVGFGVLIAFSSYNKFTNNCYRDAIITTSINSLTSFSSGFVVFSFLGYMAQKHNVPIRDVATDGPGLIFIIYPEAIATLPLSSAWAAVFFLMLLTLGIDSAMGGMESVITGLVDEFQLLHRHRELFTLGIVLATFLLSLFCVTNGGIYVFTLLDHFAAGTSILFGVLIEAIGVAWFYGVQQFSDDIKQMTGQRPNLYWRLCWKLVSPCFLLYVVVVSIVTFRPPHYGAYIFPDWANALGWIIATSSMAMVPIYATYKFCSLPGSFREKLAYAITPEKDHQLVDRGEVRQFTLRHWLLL
# Procedure: Male Sprague–Dawley rats were killed by cervical dislocation, and their brains were rapidly removed and then dissected on ice. The cerebral cortex, hypothalamus and striatum were homogenised in 4 mL of assay buffer (50 mM Tris–HCl buffer, pH 7.4.) and centrifuged at 40,000× g for 10 min at 4 °C. The pellets were centrifuged twice at 20,000× g and then resuspended in 4 mL of assay buffer. […] Bio-Rad protein assay reagents (1:5 ratio) were used to analyse the protein concentration of the synaptosomal suspension.
# All data for inhibition curves were analysed by nonlinear regression using Prism software (GraphPad Software Inc., San Diego, CA) to determine IC50 values. For the microdialysis experiments, two-way repeated-measures ANOVA followed by Tukey’s test was used to compare the percentage increase over baseline between groups, time and treatment as independent factors, and time as the repeated factor.
# A1 = A1 (Homo sapiens, UniProt P30542); experiment: CNS receptor binding, adenosine A1; details: CHO cell line, [3H]-DPCPX(1)
# Chain of A1 (P30542 whole entry): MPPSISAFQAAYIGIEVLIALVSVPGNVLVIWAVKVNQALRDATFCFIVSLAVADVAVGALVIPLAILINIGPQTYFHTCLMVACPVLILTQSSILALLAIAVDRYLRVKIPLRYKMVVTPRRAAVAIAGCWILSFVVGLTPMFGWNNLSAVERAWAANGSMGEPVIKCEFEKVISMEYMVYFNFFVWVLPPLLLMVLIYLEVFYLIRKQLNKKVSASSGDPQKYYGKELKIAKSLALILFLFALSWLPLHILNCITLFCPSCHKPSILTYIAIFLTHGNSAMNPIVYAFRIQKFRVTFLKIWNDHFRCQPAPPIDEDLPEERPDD
# Procedure: as §1
# A2A = A2A (Homo sapiens, UniProt P29274); experiment: CNS receptor binding, adenosine A2A; details: HEK293 cell line, [3H]-CGS21680(10), read-out: IC50 values for albiflorin
# Chain of A2A (P29274 whole entry): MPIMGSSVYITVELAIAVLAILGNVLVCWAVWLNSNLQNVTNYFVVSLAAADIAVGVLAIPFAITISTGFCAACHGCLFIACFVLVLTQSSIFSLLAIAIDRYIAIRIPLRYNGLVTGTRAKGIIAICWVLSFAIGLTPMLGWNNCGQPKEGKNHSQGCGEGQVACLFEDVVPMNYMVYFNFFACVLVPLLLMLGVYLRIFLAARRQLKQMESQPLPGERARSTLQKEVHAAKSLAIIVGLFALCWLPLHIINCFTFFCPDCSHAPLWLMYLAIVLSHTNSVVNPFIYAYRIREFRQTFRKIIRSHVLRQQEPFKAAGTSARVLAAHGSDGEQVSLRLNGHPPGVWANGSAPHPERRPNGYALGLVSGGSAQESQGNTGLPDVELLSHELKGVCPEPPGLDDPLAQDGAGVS
# Procedure: as §1
# M5 = M5 (Homo sapiens, UniProt P08912); experiment: CNS receptor binding, muscarinic M5; details: CHO cell line, [3H]-NMS(1)
# Chain of M5 (P08912 whole entry): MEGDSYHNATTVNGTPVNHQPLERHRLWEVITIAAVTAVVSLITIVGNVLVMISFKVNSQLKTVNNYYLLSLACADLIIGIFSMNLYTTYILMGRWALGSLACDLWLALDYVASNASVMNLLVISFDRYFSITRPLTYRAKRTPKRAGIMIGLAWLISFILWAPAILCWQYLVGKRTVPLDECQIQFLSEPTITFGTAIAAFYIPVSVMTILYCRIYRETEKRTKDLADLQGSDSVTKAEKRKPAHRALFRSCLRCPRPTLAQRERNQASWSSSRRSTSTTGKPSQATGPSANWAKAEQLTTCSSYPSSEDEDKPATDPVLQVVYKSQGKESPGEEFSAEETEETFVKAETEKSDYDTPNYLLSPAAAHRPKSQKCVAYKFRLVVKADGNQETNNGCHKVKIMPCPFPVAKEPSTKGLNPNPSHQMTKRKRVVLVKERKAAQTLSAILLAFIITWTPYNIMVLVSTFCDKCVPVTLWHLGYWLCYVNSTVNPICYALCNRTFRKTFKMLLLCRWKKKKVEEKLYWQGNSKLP
# Procedure: as §1
# α1A = α1A (Rattus norvegicus, UniProt P43140); experiment: CNS receptor binding, NE receptor α1A; details: Rat Frontal cortex, [3H]-parzosin(1)
# Chain of α1A (P43140 whole entry): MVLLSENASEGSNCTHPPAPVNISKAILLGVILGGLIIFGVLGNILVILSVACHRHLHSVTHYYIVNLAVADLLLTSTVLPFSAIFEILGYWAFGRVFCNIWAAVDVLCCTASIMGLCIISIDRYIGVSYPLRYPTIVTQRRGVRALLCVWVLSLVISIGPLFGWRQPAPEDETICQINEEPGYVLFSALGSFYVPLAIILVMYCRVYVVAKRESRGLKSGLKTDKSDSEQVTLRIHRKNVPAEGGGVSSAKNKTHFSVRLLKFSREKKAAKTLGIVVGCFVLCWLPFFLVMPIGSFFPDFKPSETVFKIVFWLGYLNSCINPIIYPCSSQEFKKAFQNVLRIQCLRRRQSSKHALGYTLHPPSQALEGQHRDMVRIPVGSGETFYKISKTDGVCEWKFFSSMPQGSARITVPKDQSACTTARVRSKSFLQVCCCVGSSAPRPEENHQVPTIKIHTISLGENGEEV
# Procedure: as §1
# hypothalamic NE levels = experiment: In vivo microdialysis, extracellular NE; design: species or system rats
# Procedure: The effect of albiflorin on extracellular monoamine levels in […] was determined using methods previously described. Microdialysis probes (CMA Microdialysis) with an active membrane surface of 2 mm were perfused with artificial cerebrospinal fluid (125 mM NaCl, 3 mM KCl, 0.75 mM MgSO4 and 1.2 mM CaCl2, pH 7.4) in situ for at least 18 h before experimentation. The microdialysis probe was then implanted via the guide cannula into the hypothalamus and perfused with artificial cerebral spinal fluid at a flow rate of 1 μL/min. A 3-h stabilisation period was allowed after probe implantation, and dialysate sampling was conducted according to previously described methods. […] All subsequent values were expressed as a percentage of the mean preinjection value (i.e., percentage of baseline). […] For a minimum of 3 h after albiflorin administration, dialysis samples were collected every 20 min and analysed to determine the levels of NE, 5-HT and DA. […] A 20-μL sample from the hypothalamus was analysed for 5-HT, NE and DA content using methods described previously. […] External standard curves were used to quantify the amounts of NE, 5-HT and DA in each sample, which was calculated using the area under the curve.
# All data for inhibition curves were analysed by nonlinear regression using Prism software (GraphPad Software Inc., San Diego, CA) to determine IC50 values. […]
# sucrose consumption = system: sucrose consumption; design: method as in PMID 26719283; details: rats; chronic unpredicted mild stress; cited from earlier work
# 5-HT1B = 5-HT1B (Homo sapiens, UniProt P28222); experiment: CNS receptor binding, 5-HT1B; details: HEK293 cell line, [3H]-LSD(6)
# Chain of 5-HT1B (P28222 whole entry): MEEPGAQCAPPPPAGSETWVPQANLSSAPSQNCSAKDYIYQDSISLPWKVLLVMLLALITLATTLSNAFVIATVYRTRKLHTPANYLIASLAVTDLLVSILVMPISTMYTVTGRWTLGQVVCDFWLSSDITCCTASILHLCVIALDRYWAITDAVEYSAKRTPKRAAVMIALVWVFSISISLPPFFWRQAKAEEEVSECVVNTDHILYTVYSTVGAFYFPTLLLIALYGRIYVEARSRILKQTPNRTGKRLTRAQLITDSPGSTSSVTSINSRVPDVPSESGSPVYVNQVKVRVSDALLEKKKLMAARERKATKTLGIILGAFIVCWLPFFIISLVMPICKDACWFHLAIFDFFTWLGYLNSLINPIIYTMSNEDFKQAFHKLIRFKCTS
# Procedure: as §1
# 5-HT2C = 5-HT2C (Homo sapiens, UniProt P28335); experiment: CNS receptor binding, 5-HT2C; details: CHO cell lines, [3H]-mesulergine(1)
# Chain of 5-HT2C (P28335 33-458): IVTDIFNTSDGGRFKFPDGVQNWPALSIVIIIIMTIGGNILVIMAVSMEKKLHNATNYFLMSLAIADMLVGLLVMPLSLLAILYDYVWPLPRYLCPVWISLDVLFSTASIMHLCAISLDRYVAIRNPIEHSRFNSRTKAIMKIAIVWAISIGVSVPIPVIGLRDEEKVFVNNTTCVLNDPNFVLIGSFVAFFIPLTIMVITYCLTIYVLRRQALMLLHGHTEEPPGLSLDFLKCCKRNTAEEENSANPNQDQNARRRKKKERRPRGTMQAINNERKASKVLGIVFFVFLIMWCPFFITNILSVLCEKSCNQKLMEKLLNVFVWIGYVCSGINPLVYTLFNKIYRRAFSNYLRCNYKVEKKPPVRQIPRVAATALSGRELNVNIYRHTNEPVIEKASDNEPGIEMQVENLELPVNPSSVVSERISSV
# Procedure: as §1
# [1] = read-out: IC50 values for albiflorin
# Chain of M4 (P08173 whole entry): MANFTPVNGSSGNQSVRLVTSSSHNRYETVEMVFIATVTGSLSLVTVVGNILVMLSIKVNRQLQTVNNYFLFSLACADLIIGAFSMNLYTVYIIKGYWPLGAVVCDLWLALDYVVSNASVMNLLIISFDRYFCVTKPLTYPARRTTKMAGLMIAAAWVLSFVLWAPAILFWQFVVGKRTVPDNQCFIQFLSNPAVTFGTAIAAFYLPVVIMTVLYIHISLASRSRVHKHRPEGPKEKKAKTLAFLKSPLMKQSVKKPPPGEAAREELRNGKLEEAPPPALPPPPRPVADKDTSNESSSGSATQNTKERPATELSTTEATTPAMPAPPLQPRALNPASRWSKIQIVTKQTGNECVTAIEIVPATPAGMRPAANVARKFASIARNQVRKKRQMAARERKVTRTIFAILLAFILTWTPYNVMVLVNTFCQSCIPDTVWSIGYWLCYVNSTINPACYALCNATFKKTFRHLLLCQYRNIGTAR
structure (smiles),measurement,setting,value
"C[C@]12C[C@@H](O)[C@@H]3C[C@@]1(O[C@@H]1O[C@H](CO)[C@@H](O)[C@H](O)[C@H]1O)[C@@]3(COC(=O)c1ccccc1)C(=O)O2 [albiflorin, Albiflorin]",% Inhibition of binding at 10 μM albiflorin,M4,15.33%
same,IC50,M4; [1],> 10 µM
same,% Inhibition of binding at 10 μM albiflorin,5-HT7,14.55%
same,IC50,5-HT7; [1],> 10 µM
same,"antidepressant-like effect, tail-suspension test",duration of immobility,decreases in the duration of immobility
same,Ki,rat DAT,3.656 ± 0.0254 µM
same,% Inhibition of binding at 10 μM albiflorin,A1,21.23%
same,IC50,A1; [1],> 10 µM
same,IC50,A2A,> 10 µM
same,% Inhibition of binding at 10 μM albiflorin,M5,20.11%
same,IC50,M5; [1],> 10 µM
same,% Inhibition of binding at 10 μM albiflorin,α1A,56.33%
same,IC50,α1A; [1],4.71 ± 0.113 µM
same,effect on hypothalamic NE levels,"hypothalamic NE levels; acute oral administration, 3.5, 7.0, 14.0 mg/kg, freely moving rats",dose- and time-dependent increase
same,time of peak NE increase after administration,"hypothalamic NE levels; oral, rats, microdialysis",1 h
same,"antidepressant-like effect, sucrose consumption",sucrose consumption,reversal of chronic unpredicted mild stress-induced inhibition of sucrose consumption
same,% Inhibition of binding at 10 μM albiflorin,5-HT1B,16.60%
same,IC50,5-HT1B; [1],> 10 µM
same,% Inhibition of binding at 10 μM albiflorin,5-HT2C,33.66%
same,IC50,5-HT2C; [1],> 10 µM
